*1 amine or outer side, *2 acyl side, *3 side chain or, on linkers, in order; H or OH if unused. Where a SMILES comes first, the peptide text is derived from it. Bridges are numbered along the chain shown (N, C = ends). [ ]: non-standard residue; d: D form. The star is where a group is joined. hPhe(3,5-F2-4-CF3) = N[C@@H](CCc1cc(F)c(C(F)(F)F)c(F)c1)C(=O)O; hPhe(3-Cl-4-CF3) = N[C@@H](CCc1ccc(C(F)(F)F)c(Cl)c1)C(=O)O; NPrPhe(4-CF3) = CCCN[C@@H](Cc1ccc(C(F)(F)F)cc1)C(=O)O; X16 = O=C([C@@H](N[*:1])C1CC(F)(F)C1)[*:2]; NMeGly(cPent) = CN[C@H](C(=O)O)C1CCCC1; Pro(4,4-F2) = O=C(O)[C@@H]1CC(F)(F)CN1; NMeI = CC[C@H](C)[C@H](NC)C(=O)O; NMeD = CN[C@@H](CC(=O)O)C(=O)O; NMeL = CN[C@@H](CC(C)C)C(=O)O; Morpholide = C1CN(*)CCO1; Ac5c = NC1(C(=O)O)CCCC1; Aze = O=C(O)[C@@H]1CCN1; Ac4c = NC1(C(=O)O)CCC1; Sar = CNCC(=O)O
How the values were obtained:
[1] = system: human lung cancer strain NCI-H441; type: cell-based
Method in brief: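 Proliferation was scored by […] measured after the reagent was added to cultures kept at 37°C in 5% carbon dioxide.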

HRAS wild-type protein = HRAS wild-type protein (Homo sapiens, UniProt P01112); assay: Binding to HRAS by surface plasmon resonance (SPR), KD and KD ratio to KRAS
HRAS wild-type protein, sequence (P01112 whole entry): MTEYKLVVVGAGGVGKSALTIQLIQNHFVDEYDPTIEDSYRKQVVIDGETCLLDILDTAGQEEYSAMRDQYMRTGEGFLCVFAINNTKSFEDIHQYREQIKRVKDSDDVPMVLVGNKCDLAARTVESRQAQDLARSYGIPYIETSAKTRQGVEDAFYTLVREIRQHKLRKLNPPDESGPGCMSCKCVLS
Method in brief: (§1)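 Single-cycle kinetics on GDP-loaded biotin-Avi RAS captured to ~100–300 RU; 75 s ascending injections, 100 µL/min, 30°C. HBS pH 7.4 + 10 mM MgCl2/10 µM GDP/4% DMSO. 1:1 fit, KD.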

[2] = biological target: GDP-bound NRAS wild-type protein (Homo sapiens, UniProt P01111); assay: Binding to NRAS by surface plasmon resonance (SPR), KD and KD ratio to KRAS
GDP-bound NRAS wild-type protein, sequence (P01111 whole entry): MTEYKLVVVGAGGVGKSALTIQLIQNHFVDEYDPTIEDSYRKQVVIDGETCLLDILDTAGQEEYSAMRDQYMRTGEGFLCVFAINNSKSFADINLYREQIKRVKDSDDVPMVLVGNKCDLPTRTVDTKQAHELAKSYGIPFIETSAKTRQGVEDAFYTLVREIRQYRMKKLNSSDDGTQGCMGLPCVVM
Method in brief: as §1

[3] = ratio of KD for HRAS wild-type protein to KD for KRAS
[4] = ratio of KD for GDP-bound NRAS wild-type protein to KD for KRAS
[5] = ratio of the KD value with respect to HRAS wild-type protein to the KD value with respect to KRAS
[6] = ratio of the KD value with respect to GDP-bound NRAS wild-type protein to the KD value with respect to KRAS
[7] = ratio of KD value for HRAS wild-type protein to KD value for KRAS (SPR)
[8] = ratio of KD value for GDP-bound NRAS wild-type protein to KD value for KRAS (SPR)

Compound | IC50 [1] | HRAS /KRAS (HRAS wild-type protein; [3]) | NRAS /KRAS [2, 4] | HRAS /KRAS (HRAS wild-type protein; [5]) | NRAS /KRAS [2, 6] | HRAS /KRAS (HRAS wild-type protein; [7]) | NRAS /KRAS [2, 8]
CCC[C@H]1C(=O)N[C@@H]([C@@H](C)CC)C(=O)N(C2CC2)CC(=O)N(C)[C@H]2C/C=C\CCN(C2=O)[C@@H](Cc2ccc(C(F)(F)F)cc2)C(=O)N(C)CC(=O)N[C@@H](CCc2ccc(C(F)(F)F)c(OC)c2)C(=O)N2C[C@H](OCC)C[C@H]2C(=O)N(C)C2(CCC2)C(=O)N(C)[C@@H](C2CCCC2)C(=O)N(C)[C@H](C(=O)N2CCCC2)CC(=O)N1C [PP3097] | 0.0054 µM | A (a compound having 10 or more and less than 20 is denoted as A) | A (a compound having 10 or more and less than 20 is denoted as A) | – | – | – | –
C=CC[C@H]1C(=O)N[C@@H]([C@@H](C)CC)C(=O)N(C)CC(=O)N(C)[C@H]2CCCCN(C2=O)[C@@H](Cc2ccc(C(F)(F)F)cc2)C(=O)N(C)CC(=O)N[C@@H](CCc2cc(F)c(C(F)(F)F)c(F)c2)C(=O)N2C[C@H](OCC)C[C@H]2C(=O)NC2(CCC2)C(=O)N(C)[C@@H](C2CCCC2)C(=O)N(C)[C@H](C(=O)N(C)C)CC(=O)N1C [PP0695] | 0.0029 µM | – | – | C (A compound having a KD ratio of 0.1 or more and less than 3 is denoted as C) | C (A compound having a KD ratio of 0.1 or more and less than 3 is denoted as C) | – | –
C#CC[C@H]1C(=O)N[C@@H]([C@@H](C)CC)C(=O)N(C)CC(=O)N(C)[C@H]2C/C=C\CCN(C2=O)[C@@H](Cc2ccc(C(F)(F)F)cc2)C(=O)N(C)CC(=O)N[C@@H](CCc2cc(F)c(C(F)(F)F)c(F)c2)C(=O)N2C[C@H](OCC)C[C@H]2C(=O)NC2(CC(C)(C)C2)C(=O)N(C)[C@@H](C2CCCC2)C(=O)N(C)[C@H](C(=O)N(C)CCC)CC(=O)N1C [PP2074] | 0.0059 µM | – | – | A (a compound having 10 or more and less than 20 is denoted as A) | A (a compound having 10 or more and less than 20 is denoted as A) | – | –
CCO[C@@H]1C[C@H]2C(=O)NC3(CC(C)(C)C3)C(=O)N(C)[C@@H](C3CCCC3)C(=O)N(C)[C@H](C(=O)N(C)C)CC(=O)N(C)[C@@H](CC)C(=O)N[C@@H]([C@@H](C)CC)C(=O)N(C)CC(=O)N(C)[C@H]3C/C=C\CCN(C3=O)[C@@H](Cc3ccc(C(F)(F)F)cc3)C(=O)N(C)CC(=O)N[C@@H](CCc3ccc(C(F)(F)F)c(OC)c3)C(=O)N2C1 [PP1559] | 0.0018 µM | – | – | – | – | A (a compound having 10 or more and less than 20 is denoted as A) | A (a compound having 10 or more and less than 20 is denoted as A)
CCO[C@@H]1C[C@H]2C(=O)NC3(CCC3)C(=O)N(C)[C@@H](C3CCCC3)C(=O)N(CCC3CCCC3)[C@H](C(=O)N3CCOCC3)CC(=O)N(C)[C@@H](CC(C)C)C(=O)N[C@@H]([C@@H](C)CC)C(=O)N(C)CC(=O)N(C)[C@H]3CCCCN(C3=O)[C@@H](Cc3ccc(C(F)(F)F)cc3)C(=O)N(C)CC(=O)N[C@@H](CCc3cc(F)c(C(F)(F)F)c(F)c3)C(=O)N2C1 [PP0651] | 0.136 µM | – | – | B (a compound having 3 or more and less than 10 is denoted as B) | B (a compound having 3 or more and less than 10 is denoted as B) | – | –
CCO[C@@H]1C[C@H]2C(=O)NC3(CCC3)C(=O)N(C)[C@@H](C3CCCC3)C(=O)N(CCC3CCCC3)[C@H](C(=O)N(C)C)CC(=O)N(C)[C@@H](CC)C(=O)N[C@@H]([C@@H](C)CC)C(=O)N(C)CC(=O)N(C)[C@H]3CCCCCN(C3=O)[C@@H](Cc3ccc(C(F)(F)F)cc3)C(=O)N(C)CC(=O)N[C@@H](CCc3cc(F)c(C(F)(F)F)c(F)c3)C(=O)N2C1 [PP0636] | 0.729 µM | – | – | A (a compound having 10 or more and less than 20 is denoted as A) | A (a compound having 10 or more and less than 20 is denoted as A) | – | –
CCO[C@@H]1C[C@H]2C(=O)NC3(CC(F)(F)C3)C(=O)N(C)[C@@H](C3CCCC3)C(=O)N3CCC[C@@H]3CC(=O)N(C)[C@@H](CC)C(=O)N[C@@H]([C@@H](C)CC)C(=O)N(C)CC(=O)N(C)[C@H]3C/C=C\CCN(C3=O)[C@@H](Cc3ccc(C(F)(F)F)cc3)C(=O)N(C)CC(=O)N[C@@H](CCc3cc(F)c(C(F)(F)F)c(F)c3)C(=O)N2C1 [PP1609] | 0.037 µM | – | – | – | – | A (a compound having 10 or more and less than 20 is denoted as A) | A (a compound having 10 or more and less than 20 is denoted as A)
CCO[C@@H]1C[C@H]2C(=O)NC3(CC(C)(C)C3)C(=O)N(C)[C@@H](C3CCCC3)C(=O)N(C)[C@H](C(=O)N(C)CC)CC(=O)N(C)[C@@H](CC)C(=O)N[C@@H]([C@@H](C)CC)C(=O)N(C)CC(=O)N(C)[C@H]3C/C=C\CCN(C3=O)[C@@H](Cc3ccc(C(F)(F)F)cc3)C(=O)N(C)CC(=O)N[C@@H](CCc3ccc(C(F)(F)F)c(OC)c3)C(=O)N2C1 [PP1653] | 0.0016 µM | – | – | – | – | A (a compound having 10 or more and less than 20 is denoted as A) | A (a compound having 10 or more and less than 20 is denoted as A)
CCCN1C(=O)[C@@H]2CCN2C(=O)CN(C)C(=O)[C@H](C2CC(F)(F)C2)NC(=O)[C@H](CC(C)C)N(C)C(=O)C[C@@H](C(=O)N2CCOCC2)N(C)C(=O)[C@H](C2CCCC2)N(C)C(=O)C2(CCCC2)NC(=O)[C@@H]2CCCN2C(=O)[C@H](CCc2cc(F)c(C(F)(F)F)c(F)c2)NC(=O)CN(C)C(=O)[C@@H]1Cc1ccc(C(F)(F)F)cc1 [PP0787] ([NMeL][X16][Sar][Aze][NPrPhe(4-CF3)][Sar][hPhe(3,5-F2-4-CF3)]P[Ac5c][NMeGly(cPent)][NMeD]-Morpholide; lactam N-11) | 0.0383 µM | B (a compound having 3 or more and less than 10 is denoted as B) | C (A compound having a KD ratio of 0.1 or more and less than 3 is denoted as C) | – | – | – | –
CCO[C@@H]1C[C@H]2C(=O)NC3(CCC3)C(=O)N(C)[C@@H](C3CCCC3)C(=O)N(C)[C@H](C(=O)N(C)C)CC(=O)N(C)[C@@H](Cc3cccs3)C(=O)N[C@@H]([C@@H](C)CC)C(=O)N(C)CC(=O)N(C)[C@H]3C/C=C\CCN(C3=O)[C@@H](Cc3ccc(C(F)(F)F)cc3)C(=O)N(C)CC(=O)N[C@@H](CCc3cc(F)c(C(F)(F)F)c(F)c3)C(=O)N2C1 [PP1123] | 0.0134 µM | B (a compound having 3 or more and less than 10 is denoted as B) | A (a compound having 10 or more and less than 20 is denoted as A) | – | – | – | –
CCCN1C(=O)CN(C)C(=O)CNC(=O)[C@H]([C@@H](C)CC)NC(=O)[C@H](CC(C)C)N(C)C(=O)C[C@@H](C(=O)N(C)C)NC(=O)[C@H](C2CCCC2)N(C)C(=O)C2(CCC2)NC(=O)[C@@H]2CC(F)(F)CN2C(=O)[C@H](CCc2ccc(C(F)(F)F)c(Cl)c2)NC(=O)CN(C)C(=O)[C@@H]1Cc1ccc(C(F)(F)F)cc1 [PP0364] ([NMeL]IG[Sar][NPrPhe(4-CF3)][Sar][hPhe(3-Cl-4-CF3)][Pro(4,4-F2)][Ac4c][NMeGly(cPent)]D-NMe2; lactam N-11) | 0.103 µM | B (a compound having 3 or more and less than 10 is denoted as B) | B (a compound having 3 or more and less than 10 is denoted as B) | – | – | – | –
CCO[C@@H]1C[C@H]2C(=O)NC3(CC(C)(C)C3)C(=O)N(C)[C@@H](C(CC)CC)C(=O)N(C)[C@H](C(=O)N(C)C)CC(=O)N(C)[C@@H](C(C)C)C(=O)N[C@@H]([C@@H](C)CC)C(=O)N(C)CC(=O)N(C)[C@H]3C/C=C\CCN(C3=O)[C@@H](Cc3ccc(C(F)(F)F)cc3)C(=O)N(C)CC(=O)N[C@@H](CCc3ccc(C(F)(F)F)c(OC)c3)C(=O)N2C1 [PP2165] | 0.0175 µM | – | – | A (a compound having 10 or more and less than 20 is denoted as A) | A (a compound having 10 or more and less than 20 is denoted as A) | – | –
CCCN1C(=O)CN(C)C(=O)CN(C)C(=O)[C@H]([C@@H](C)CC)NC(=O)[C@H](CC(C)C)N(C)C(=O)C[C@@H](C(=O)N2CCOCC2)N(C)C(=O)[C@H]([C@@H](C)CC)N(C)C(=O)C2(CCCC2)NC(=O)[C@@H]2CCCN2C(=O)[C@H](CCc2ccc(C(F)(F)F)c(Cl)c2)NC(=O)CN(C)C(=O)[C@@H]1Cc1ccc(C(F)(F)F)cc1 [PP1926] ([NMeL]I[Sar][Sar][NPrPhe(4-CF3)][Sar][hPhe(3-Cl-4-CF3)]P[Ac5c][NMeI][NMeD]-Morpholide; lactam N-11) | 0.0174 µM | – | – | B (a compound having 3 or more and less than 10 is denoted as B) | B (a compound having 3 or more and less than 10 is denoted as B) | – | –
C#CC[C@H]1C(=O)N[C@@H]([C@@H](C)CC)C(=O)N(C)CC(=O)N(C)[C@H]2C/C=C\CCN(C2=O)[C@@H](Cc2ccc(C(F)(F)F)cc2)C(=O)N(C)CC(=O)N[C@@H](CCc2ccc(C(F)(F)F)c(Cl)c2)C(=O)N2C[C@H](OCC)C[C@H]2C(=O)NC2(CC(C)(C)C2)C(=O)N(C)[C@@H](C2CCCC2)C(=O)N(C)[C@H](C(=O)N(C)CC)CC(=O)N1C [PP2844] | 0.0076 µM | A (a compound having 10 or more and less than 20 is denoted as A) | A (a compound having 10 or more and less than 20 is denoted as A) | – | – | – | –
CC[C@H](C)[C@@H]1NC(=O)[C@H](CC(C)C)N(C)C(=O)C[C@@H](C(=O)N2CCOCC2)N(C)C(=O)[C@H](C2CCCC2)N(C)C(=O)C2(CCC2)NC(=O)[C@@H]2[C@H](OC)CCN2C(=O)[C@H](CCc2cc(F)c(C(F)(F)F)c(F)c2)NC(=O)CN(C)C(=O)[C@H](Cc2ccc(C(F)(F)F)cc2)N2CCCCC[C@@H](C2=O)N(C)C(=O)CN(C)C1=O [PP1085] | 0.59 µM | A (a compound having 10 or more and less than 20 is denoted as A) | A (a compound having 10 or more and less than 20 is denoted as A) | – | – | – | –
